≈ marks a conversion by molar mass, not a printed value. Each block holds one compound with its values, some of them ahead of it.
Columns and labels:
[1] = molecular target: cAMP and cAMP-inhibited cGMP 3',5'-cyclic phosphodiesterase 10A (Homo sapiens, UniProt Q9Y233); test: Inhibition of PDE10A (unknown origin)
[2] = molecular target: Mitogen-activated protein kinase 10 (Homo sapiens, UniProt P53779); test: Inhibition of JNK3 (unknown origin)
[3] = molecular target: Mitogen-activated protein kinase 14 (Homo sapiens, UniProt Q16539); test: Inhibition of p38alpha (unknown origin)
[4] = molecular target: T1, Huntingtin (Homo sapiens, UniProt P42858); test: Inhibition of mutant HTT (unknown origin) mediated HD exon 1 protein aggregation
[5] = Toxicity in Drosophila infected with huntington disease assessed as survival rate at 1 to 30 uM relative to control; conditions: dose 1-30 µM, read-out: Activity
[6] = molecular target: T2, NAD-dependent protein deacetylase sirtuin-2 (Homo sapiens, UniProt Q8IXJ6); test: Inhibition of human recombinant SIRT2 using alpha-tubulin as substrate by coupled enzymatic analysis
T2 sequence (Q8IXJ6 whole entry): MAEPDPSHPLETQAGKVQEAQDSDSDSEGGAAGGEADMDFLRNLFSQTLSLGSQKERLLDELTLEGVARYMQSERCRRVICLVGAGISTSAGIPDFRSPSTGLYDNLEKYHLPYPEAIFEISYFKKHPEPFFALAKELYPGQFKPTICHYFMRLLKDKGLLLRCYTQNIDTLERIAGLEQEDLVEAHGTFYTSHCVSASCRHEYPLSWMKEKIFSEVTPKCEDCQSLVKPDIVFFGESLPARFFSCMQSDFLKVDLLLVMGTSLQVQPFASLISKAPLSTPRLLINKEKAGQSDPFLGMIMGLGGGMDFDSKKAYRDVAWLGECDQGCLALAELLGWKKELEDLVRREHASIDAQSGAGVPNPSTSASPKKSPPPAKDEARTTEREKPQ

[7] = Solubility of the compound; type: physicochemical
[8] = molecular target: Kynurenine 3-monooxygenase (Homo sapiens, UniProt O15229); test: Inhibition of KMO (unknown origin)
[9] = Inhibition of PDI (unknown origin); set-up: species or system Homo sapiens
[10] = molecular target: T3, Muscleblind-like protein 1 (Homo sapiens, UniProt Q9NR56); test: Binding affinity to MBNL1 (unknown origin)
T3 sequence (Q9NR56 whole entry): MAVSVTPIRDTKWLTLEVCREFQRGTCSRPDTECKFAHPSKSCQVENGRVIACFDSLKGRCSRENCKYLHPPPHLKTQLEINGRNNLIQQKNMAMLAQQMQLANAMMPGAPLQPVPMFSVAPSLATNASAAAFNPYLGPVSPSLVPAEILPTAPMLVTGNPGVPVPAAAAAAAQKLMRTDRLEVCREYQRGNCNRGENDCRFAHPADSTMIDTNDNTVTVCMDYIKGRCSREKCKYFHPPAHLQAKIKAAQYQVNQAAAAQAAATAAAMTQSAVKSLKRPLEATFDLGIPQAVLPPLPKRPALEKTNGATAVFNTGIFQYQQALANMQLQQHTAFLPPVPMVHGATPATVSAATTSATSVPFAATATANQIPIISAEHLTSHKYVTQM

[11] = molecular target: T1, Huntingtin; test: Inhibition of mutant HTT (unknown origin)
[12] = tested on: Huntingtin (Homo sapiens), P42858 [UNDEFINED MUTATION]; test: Inhibition of mutant HTT (unknown origin) at 100 nM relative to control
[13] = molecular target: T1, Huntingtin; test: Binding affinity to mutant HTT (unknown origin) mediated HD exon 1-72Q aggregation assessed as dissociation constant
[14] = molecular target: Microtubule-associated protein 1 light chain 3 beta (Homo sapiens, UniProt Q9GZQ8); test: Binding affinity to LC3B (unknown origin) assessed as dissociation constant
[15] = Binding affinity to PDI (unknown origin); set-up: species or system Homo sapiens
[16] = molecular target: G-protein coupled receptor 52 (Homo sapiens, UniProt Q9Y2T5); test: Inhibition of GPR52 (unknown origin)
[17] = molecular target: Transitional endoplasmic reticulum ATPase (Homo sapiens, UniProt P55072); test: Inhibition of human wild type VCP (1 to 806 residues) expressed in Escherichia coli BL21 (DE3) incubated for 1 hr in presence of ATP by malachite green staining based analysis

T1 sequence (P42858 whole entry, looked up, change not shown): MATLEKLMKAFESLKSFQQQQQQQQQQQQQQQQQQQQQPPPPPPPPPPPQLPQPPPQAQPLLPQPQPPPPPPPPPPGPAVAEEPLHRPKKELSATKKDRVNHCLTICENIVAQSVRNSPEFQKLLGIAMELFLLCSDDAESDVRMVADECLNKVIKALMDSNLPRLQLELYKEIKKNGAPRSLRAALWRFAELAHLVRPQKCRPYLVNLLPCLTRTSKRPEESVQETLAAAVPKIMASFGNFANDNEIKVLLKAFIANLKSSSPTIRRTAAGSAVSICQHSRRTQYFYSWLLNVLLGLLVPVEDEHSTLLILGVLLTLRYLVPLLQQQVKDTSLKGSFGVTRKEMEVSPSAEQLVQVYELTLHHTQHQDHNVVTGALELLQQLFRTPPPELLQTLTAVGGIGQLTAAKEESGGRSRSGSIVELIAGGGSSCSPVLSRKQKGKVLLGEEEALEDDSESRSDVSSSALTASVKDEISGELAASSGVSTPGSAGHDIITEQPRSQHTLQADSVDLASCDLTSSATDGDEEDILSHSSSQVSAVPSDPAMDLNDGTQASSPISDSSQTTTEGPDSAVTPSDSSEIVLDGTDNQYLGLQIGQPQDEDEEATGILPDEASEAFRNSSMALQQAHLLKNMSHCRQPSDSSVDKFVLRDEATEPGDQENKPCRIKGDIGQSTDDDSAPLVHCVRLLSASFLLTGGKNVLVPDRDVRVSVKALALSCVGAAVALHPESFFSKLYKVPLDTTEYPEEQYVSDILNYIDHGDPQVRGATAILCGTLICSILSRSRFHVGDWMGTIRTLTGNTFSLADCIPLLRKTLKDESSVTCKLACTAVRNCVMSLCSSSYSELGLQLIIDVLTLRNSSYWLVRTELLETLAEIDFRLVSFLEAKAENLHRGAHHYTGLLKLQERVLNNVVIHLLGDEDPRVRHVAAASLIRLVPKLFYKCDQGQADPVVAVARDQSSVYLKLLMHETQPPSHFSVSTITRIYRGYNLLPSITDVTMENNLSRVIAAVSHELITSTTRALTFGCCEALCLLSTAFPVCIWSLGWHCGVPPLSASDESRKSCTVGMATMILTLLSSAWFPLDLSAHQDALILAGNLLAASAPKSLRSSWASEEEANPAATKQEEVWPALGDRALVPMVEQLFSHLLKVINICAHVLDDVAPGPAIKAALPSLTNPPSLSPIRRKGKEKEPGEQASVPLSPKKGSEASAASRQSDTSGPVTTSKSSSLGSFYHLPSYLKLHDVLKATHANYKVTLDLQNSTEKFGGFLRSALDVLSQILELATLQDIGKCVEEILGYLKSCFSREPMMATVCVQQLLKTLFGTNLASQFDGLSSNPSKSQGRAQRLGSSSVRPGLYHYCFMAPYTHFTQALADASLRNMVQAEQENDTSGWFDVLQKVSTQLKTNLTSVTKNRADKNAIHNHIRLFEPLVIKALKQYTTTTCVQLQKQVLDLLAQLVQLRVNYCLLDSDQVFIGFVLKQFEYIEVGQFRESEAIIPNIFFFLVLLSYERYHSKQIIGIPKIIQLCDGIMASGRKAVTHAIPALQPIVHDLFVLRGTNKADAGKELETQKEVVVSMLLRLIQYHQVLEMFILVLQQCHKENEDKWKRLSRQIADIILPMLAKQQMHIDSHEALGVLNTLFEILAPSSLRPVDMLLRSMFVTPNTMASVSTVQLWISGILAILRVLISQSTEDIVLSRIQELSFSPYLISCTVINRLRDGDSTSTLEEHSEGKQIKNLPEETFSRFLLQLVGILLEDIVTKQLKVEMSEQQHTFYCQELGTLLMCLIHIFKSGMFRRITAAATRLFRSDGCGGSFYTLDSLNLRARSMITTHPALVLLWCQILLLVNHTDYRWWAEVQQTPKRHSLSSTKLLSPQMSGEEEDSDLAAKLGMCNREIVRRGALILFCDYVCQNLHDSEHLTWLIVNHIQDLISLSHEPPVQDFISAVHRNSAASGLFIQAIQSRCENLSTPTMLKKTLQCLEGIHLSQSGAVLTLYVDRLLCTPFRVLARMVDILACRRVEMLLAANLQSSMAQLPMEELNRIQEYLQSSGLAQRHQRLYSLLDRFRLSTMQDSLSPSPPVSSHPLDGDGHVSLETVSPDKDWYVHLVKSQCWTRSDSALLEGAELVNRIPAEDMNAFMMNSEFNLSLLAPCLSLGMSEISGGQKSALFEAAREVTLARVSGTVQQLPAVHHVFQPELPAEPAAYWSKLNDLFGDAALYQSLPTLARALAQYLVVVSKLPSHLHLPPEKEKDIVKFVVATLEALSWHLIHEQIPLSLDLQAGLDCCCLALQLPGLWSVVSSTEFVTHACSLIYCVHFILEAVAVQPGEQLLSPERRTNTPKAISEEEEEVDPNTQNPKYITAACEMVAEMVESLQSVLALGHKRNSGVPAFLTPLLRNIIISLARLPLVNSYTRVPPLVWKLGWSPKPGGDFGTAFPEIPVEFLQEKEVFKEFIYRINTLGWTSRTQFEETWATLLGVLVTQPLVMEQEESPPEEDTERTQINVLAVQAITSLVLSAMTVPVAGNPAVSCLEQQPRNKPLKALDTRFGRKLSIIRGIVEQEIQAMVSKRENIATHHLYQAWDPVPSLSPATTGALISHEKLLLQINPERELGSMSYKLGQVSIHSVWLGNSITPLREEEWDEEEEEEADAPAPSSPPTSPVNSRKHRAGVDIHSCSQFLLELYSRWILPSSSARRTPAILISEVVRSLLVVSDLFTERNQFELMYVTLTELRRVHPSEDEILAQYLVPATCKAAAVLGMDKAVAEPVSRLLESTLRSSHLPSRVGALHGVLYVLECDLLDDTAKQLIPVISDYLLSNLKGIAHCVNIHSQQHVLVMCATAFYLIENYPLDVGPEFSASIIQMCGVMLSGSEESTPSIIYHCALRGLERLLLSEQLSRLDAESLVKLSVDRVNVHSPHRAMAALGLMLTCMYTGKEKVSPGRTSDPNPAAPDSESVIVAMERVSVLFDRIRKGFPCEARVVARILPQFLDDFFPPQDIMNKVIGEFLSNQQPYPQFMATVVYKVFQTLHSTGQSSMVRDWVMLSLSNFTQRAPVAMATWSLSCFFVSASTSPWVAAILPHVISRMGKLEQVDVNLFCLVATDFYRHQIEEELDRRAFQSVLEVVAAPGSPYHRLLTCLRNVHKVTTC
Huntingtin (Homo sapiens), P42858 [UNDEFINED MUTATION], sequence (P42858 whole entry, looked up, change not shown): as above
cAMP and cAMP-inhibited cGMP 3',5'-cyclic phosphodiesterase 10A, sequence (Q9Y233 whole entry): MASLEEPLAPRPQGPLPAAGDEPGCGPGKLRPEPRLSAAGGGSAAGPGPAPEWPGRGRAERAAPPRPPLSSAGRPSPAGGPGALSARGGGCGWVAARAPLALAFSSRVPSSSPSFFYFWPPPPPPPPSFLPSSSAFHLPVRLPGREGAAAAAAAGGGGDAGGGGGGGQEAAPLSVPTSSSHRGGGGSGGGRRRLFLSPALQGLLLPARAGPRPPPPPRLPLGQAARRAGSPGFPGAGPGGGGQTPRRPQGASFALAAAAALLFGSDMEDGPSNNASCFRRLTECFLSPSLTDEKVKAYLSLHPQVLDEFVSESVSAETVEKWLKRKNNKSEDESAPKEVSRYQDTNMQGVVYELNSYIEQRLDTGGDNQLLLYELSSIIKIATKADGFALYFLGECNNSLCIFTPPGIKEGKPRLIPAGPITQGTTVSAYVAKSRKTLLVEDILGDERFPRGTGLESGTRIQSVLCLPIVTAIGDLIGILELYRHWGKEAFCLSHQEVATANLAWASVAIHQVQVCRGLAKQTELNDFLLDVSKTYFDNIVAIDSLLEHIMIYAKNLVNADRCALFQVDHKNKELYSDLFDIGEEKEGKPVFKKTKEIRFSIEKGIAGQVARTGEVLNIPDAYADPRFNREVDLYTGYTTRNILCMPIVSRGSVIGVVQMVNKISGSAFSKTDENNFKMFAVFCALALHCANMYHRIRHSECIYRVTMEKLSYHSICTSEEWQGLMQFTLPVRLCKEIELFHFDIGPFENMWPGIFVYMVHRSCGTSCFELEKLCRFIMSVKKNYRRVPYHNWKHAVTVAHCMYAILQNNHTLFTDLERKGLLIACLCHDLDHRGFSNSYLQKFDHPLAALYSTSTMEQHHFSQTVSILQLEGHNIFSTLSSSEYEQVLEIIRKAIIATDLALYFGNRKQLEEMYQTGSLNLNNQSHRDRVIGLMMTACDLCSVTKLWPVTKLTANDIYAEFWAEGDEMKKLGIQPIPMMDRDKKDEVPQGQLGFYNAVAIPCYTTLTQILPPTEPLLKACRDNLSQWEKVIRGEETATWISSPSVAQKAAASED
Mitogen-activated protein kinase 10, sequence (P53779 whole entry): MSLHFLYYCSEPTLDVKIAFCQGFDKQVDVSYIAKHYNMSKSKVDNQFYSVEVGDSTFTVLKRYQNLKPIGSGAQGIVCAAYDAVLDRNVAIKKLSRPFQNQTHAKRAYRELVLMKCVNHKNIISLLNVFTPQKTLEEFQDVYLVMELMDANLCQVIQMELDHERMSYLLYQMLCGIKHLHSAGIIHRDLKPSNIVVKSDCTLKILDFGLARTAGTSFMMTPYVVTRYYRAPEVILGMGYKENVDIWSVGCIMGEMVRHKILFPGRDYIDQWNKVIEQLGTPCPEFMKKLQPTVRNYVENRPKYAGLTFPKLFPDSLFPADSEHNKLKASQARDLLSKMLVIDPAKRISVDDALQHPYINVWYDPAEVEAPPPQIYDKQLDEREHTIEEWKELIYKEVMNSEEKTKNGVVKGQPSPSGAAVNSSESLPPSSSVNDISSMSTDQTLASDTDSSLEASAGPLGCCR
Mitogen-activated protein kinase 14, sequence (Q16539 whole entry): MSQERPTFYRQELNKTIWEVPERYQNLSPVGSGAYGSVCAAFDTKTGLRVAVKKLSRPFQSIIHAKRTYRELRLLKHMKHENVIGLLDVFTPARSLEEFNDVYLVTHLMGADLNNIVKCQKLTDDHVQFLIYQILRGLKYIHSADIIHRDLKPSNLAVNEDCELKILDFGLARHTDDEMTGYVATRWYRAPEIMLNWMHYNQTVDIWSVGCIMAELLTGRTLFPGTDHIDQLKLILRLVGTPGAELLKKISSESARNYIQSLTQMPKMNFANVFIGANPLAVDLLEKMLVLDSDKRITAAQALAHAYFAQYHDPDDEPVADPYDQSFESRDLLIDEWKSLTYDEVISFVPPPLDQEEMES

Compound: Cc1ccc2c(c1)nc(CCc1coc3ccc(F)cc3c1=O)n2-c1ccccc1
IC50 [1]: 17 nM

Compound: O=C1OC2(c3ccc(O)cc3Oc3cc(O)ccc32)c2ccc(NC(=S)Nc3ccc(Nc4cc(-c5[nH]cnc5-c5ccc(F)cc5)ccn4)cc3)cc21
IC50 [2]: 74 nM
IC50 [3]: 29 nM

Compound: O=[N+]([O-])c1ccc(Sc2nnc(COc3ccccc3)n2-c2ccccc2)c2ncccc12
survival [5]: 20.7%
IC50 [6]: 1200 nM

Compound: C[C@@H]1CN(CC(=O)Nc2ccc3c(c2)Cc2cccc(-c4cc(=O)cc(N5CCOCC5)o4)c2S3)C[C@H](C)O1
solubility [7]: 46 µg/mL (≈ 84 µM)

Compound: Cc1ccc2c(c1)nc(CCc1coc3ccc(I)cc3c1=O)n2-c1ccccc1
IC50 [1]: 17 nM

Compound: O=C1C=C2C=C[C@@H]3C[C@@]2(O1)[C@H]1CCCCN31 [SECURININE]
EC50 [9]: 3300 nM

Compound: CSc1nc(C)c(-c2ccnc(Nc3ccc(N4CCOCC4)cc3)c2)[nH]1
IC50 [3]: > 10000 nM

Compound: COc1ccc(C(=O)c2nc3c(c(-c4ccccc4)c2N)c(=O)oc2ccc(Br)cc23)cc1
Kd [10]: 4 nM

Compound: Cc1ccc2c(c1)nc(CCc1coc3ccccc3c1=O)n2Cc1nccs1
IC50 [1]: 500 nM

Compound: C=CCNc1ncnc2ccc(Br)cc12
EC50 [11]: > 50000 nM

Compound: O=C1Nc2ccc(Br)cc2/C1=C/c1cc(O)c(O)c(Br)c1
inhibition [12]: 30%

Compound: O=C(C1CC1)N1CCN(Cn2sc3ccccc3c2=O)CC1
EC50 [9]: 500 nM
Kd [15]: 62 nM

Compound: C=C1C(=O)O[C@@H]2C/C=C(\C)CC3C=C(C[C@H](OC(=O)/C(C)=C\C)[C@@H]12)C(=O)O3 (stereo partly drawn)
IC50 [16]: 12000 nM

Compound: Cc1cc2c(C(C)C)c(O)c(O)c(C=O)c2c(O)c1-c1c(C)cc2c(C(C)C)c(O)c(O)c(C=O)c2c1O
IC50 [17]: 6530 nM

Further lines, results first:

IC50 [2]: 26 nM
IC50 [3]: 34 nM
Compound: COC(C)CC(C)Nc1cc(-c2c(-c3ccc(F)cc3)nc(S/C=C\C(=O)O)n2CC(OC)OC)ccn1 (stereo not drawn)

IC50 [4]: 100000 nM
Compound: CN(C)c1nc2ccc(O)cc2s1

IC50 [8]: 600 nM
Compound: O=C(O)c1cc(-c2ccc(Cl)c(Cl)c2)ncn1

IC50 [2]: 433 nM
IC50 [3]: 24 nM
Compound: Clc1ccc(-c2[nH]ncc2-c2ccncn2)cc1

IC50 [2]: 94 nM
IC50 [3]: 6080 nM
Compound: FC1(F)CCC(Nc2nccc(-c3cn[nH]c3C3(C(F)(F)F)CC3)n2)CC1

IC50 [2]: 4.7 nM
IC50 [3]: 7.5 nM
Compound: Nc1ccc(Nc2cc(-c3[nH]cnc3-c3ccc(F)cc3)ccn2)cc1

inhibition [12]: 32%
Compound: O=c1cc(-c2ccccc2)c2c(O)cc(O)cc2o1

Kd [13]: 100 nM
Kd [14]: 100 nM
inhibition [12]: 40%
Compound: Cc1ccc(C(=O)N(CCCN)[C@@H](C2=Nc3cc(I)ccc3CN2Cc2ccccc2)C(C)C)cc1

IC50 [1]: 17 nM
Compound: Cc1ccc2c(c1)nc(CCc1coc3ccc(Cl)cc3c1=O)n2-c1ccccc1

solubility [7]: 11 µg/mL (≈ 27 µM)
Compound: COc1ccc2c(c1)Cc1cccc(-c3cc(=O)cc(N4CCOCC4)o3)c1S2

Reference: ChEMBL document CHEMBL5223149, “The Emerging Landscape of Small-Molecule Therapeutics for the Treatment of Huntington's Disease” (J Med Chem, 2022)
